Data taken from ChEMBL document CHEMBL1201862, “PubChem BioAssay data set” (2004).
The source made the active and inactive calls.

Key:
[1] = target: T1, Histone-lysine N-methyltransferase NSD2 (Homo sapiens, UniProt O96028); format: biochemical
T1 sequence (O96028 whole entry): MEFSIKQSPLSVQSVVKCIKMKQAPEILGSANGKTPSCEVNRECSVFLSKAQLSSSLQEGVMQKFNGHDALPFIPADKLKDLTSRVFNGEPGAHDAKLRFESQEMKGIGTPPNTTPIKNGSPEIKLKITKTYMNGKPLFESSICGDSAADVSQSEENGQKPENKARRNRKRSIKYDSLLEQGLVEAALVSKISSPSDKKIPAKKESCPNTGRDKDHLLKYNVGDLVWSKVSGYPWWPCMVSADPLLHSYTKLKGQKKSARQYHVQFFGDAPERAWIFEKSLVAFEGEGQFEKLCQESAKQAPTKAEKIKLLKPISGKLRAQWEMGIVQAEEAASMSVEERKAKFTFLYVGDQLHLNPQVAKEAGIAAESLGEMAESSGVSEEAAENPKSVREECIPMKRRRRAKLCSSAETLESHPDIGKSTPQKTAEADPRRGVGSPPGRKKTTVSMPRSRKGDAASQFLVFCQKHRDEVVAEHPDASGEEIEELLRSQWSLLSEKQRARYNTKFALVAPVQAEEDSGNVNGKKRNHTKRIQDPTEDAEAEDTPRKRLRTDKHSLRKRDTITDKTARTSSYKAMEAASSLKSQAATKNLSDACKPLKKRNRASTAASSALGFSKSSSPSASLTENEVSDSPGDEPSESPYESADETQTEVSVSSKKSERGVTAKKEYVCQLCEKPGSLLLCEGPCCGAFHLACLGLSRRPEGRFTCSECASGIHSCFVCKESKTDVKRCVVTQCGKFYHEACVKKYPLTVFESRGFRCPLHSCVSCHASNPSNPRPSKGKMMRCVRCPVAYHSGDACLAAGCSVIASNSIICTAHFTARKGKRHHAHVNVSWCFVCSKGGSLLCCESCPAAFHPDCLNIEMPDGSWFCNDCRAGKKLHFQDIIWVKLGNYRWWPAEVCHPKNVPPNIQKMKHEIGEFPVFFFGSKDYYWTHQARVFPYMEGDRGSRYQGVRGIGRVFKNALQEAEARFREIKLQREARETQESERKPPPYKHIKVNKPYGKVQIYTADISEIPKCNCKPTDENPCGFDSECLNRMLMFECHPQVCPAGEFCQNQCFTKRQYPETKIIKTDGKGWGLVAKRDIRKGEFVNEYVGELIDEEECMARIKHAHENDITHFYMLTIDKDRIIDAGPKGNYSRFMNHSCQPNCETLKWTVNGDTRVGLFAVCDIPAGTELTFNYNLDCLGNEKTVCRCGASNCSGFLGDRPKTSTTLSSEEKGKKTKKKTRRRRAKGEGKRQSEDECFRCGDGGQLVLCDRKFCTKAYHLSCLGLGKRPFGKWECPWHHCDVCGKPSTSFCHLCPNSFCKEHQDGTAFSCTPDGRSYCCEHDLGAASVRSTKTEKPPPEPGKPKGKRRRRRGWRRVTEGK

[2] = target: T2, Carboxy-terminal domain RNA polymerase II polypeptide A small phosphatase 1 (Homo sapiens, UniProt Q9GZU7); experiment: CTDSP1 inhibitors, concentration-response, biochemical, absorbance readout, ultra-high-throughput screen actives (AID 540297); format: functional
T2 sequence (Q9GZU7 whole entry): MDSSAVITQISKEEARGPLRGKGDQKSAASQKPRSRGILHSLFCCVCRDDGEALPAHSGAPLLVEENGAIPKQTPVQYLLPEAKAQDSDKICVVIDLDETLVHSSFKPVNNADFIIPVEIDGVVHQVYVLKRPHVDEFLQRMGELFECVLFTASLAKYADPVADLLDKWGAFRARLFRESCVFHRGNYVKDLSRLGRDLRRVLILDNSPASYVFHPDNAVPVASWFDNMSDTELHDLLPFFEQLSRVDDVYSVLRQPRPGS

Fatty acid synthase [3] = target: T3, Fatty acid synthase (Homo sapiens, UniProt P49327); experiment: inhibition of human FAS-TE enzyme activity – biochemical, endpoint fluorescence intensity, uHTS hits, dose response (AID 624327); format: functional;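 note: fluorescence from hydrolysis of an O-methyl fluorescein acyl ester substrate by the enzyme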
T3 sequence (P49327 whole entry): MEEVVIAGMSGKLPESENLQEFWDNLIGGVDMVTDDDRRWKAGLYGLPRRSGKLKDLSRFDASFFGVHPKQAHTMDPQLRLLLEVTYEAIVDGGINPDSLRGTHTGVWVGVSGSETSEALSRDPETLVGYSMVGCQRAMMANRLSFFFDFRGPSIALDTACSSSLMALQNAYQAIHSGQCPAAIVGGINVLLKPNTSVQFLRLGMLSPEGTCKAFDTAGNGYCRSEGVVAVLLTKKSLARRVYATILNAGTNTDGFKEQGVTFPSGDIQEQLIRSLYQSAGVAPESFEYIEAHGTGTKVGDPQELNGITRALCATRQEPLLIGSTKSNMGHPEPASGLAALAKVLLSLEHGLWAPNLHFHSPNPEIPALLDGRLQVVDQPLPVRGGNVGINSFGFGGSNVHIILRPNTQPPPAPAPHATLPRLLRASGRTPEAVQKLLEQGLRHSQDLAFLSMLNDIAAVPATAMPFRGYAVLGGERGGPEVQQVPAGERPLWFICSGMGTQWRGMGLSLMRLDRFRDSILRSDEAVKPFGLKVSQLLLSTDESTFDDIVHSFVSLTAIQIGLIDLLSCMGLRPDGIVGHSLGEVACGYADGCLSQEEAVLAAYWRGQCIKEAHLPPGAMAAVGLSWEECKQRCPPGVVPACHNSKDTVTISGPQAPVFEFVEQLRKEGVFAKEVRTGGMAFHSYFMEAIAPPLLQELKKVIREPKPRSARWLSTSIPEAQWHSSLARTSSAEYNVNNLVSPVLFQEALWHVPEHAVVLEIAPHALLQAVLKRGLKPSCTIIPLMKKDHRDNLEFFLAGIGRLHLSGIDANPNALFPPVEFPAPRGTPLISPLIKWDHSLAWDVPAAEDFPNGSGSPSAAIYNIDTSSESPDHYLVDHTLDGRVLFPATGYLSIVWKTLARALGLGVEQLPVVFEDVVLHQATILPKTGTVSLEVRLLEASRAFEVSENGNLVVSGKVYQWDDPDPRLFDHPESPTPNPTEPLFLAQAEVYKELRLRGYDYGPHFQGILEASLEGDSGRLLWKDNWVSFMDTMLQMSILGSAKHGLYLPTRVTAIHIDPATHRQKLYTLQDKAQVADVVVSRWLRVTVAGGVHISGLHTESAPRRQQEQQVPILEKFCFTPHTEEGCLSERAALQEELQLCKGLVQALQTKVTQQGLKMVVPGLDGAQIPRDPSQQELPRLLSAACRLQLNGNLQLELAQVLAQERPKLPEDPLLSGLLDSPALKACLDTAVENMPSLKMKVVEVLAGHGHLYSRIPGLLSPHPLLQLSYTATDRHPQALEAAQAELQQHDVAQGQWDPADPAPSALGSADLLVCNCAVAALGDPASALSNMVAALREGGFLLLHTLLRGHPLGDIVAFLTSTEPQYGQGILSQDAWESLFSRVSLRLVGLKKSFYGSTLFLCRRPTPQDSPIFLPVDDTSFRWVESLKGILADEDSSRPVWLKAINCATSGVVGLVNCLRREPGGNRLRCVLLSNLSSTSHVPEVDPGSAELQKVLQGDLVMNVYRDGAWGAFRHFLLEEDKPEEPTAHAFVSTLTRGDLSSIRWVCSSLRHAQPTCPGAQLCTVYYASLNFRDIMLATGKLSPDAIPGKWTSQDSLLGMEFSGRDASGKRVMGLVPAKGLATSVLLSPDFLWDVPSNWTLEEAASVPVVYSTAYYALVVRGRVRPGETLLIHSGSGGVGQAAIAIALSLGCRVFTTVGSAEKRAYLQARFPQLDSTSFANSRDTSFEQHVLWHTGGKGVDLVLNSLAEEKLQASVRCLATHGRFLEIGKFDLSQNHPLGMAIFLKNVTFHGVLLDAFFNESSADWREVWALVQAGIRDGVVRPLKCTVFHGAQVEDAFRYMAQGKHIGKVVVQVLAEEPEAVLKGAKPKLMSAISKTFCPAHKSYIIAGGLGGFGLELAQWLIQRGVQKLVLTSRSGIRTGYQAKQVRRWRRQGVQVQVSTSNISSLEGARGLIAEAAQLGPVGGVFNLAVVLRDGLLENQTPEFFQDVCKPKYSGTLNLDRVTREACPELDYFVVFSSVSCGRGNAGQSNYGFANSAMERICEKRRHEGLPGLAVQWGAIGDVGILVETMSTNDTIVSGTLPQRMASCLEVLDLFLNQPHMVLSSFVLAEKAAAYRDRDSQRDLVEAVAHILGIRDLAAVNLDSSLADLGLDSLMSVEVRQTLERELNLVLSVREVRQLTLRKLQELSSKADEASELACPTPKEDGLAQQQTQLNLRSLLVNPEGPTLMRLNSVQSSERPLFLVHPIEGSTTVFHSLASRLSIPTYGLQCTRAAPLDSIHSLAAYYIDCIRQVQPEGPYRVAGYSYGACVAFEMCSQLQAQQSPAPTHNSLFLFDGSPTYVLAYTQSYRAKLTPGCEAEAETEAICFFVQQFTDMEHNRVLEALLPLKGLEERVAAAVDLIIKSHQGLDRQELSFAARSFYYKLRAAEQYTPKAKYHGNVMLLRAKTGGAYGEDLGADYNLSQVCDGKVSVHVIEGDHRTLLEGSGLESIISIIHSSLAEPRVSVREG

[4] = target: T4, High affinity choline transporter 1 (Homo sapiens, UniProt Q9GZV3); experiment: human choline transporter blockers, potency – cell-based, 5-point CRC, membrane potential dye, dose response (AID 504840); format: functional
T4 sequence (Q9GZV3 whole entry): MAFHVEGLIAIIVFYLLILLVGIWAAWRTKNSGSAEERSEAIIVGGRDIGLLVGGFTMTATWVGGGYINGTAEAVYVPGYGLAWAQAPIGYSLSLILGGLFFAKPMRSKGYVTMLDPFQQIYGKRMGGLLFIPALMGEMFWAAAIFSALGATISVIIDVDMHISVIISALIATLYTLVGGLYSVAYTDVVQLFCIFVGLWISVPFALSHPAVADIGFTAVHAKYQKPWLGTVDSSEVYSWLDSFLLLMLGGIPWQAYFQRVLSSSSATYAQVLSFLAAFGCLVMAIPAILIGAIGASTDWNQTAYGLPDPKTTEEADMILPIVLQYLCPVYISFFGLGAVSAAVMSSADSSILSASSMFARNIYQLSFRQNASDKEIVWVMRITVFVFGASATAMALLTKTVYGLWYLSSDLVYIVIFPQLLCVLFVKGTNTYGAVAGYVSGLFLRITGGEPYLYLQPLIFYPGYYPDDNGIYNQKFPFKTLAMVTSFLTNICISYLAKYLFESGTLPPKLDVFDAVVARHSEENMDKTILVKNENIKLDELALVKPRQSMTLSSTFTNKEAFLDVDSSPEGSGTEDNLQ

Fatty acid synthase [5] = target: T3, Fatty acid synthase; experiment: inhibition of human FAS-TE enzyme activity – biochemical, kinetic fluorescence intensity, dose response (AID 624326); format: functional;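 note: rate of fluorescence rise from hydrolysis of a fluorogenic O-methyl fluorescein ester substrate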
cells [6] = experiment: cells
[7] = target: T5, Oxysterols receptor LXR-beta (Homo sapiens, UniProt P55055); format: functional, cell-based;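 note: Cell-based luminescence dose-response assay of agonist activity at LXR, run as a confirmatory counterscreen to a daf-12 agonist screen; HEK293 cells with Gal4-LXR fusion and GAL4-driven luciferase reporter; agonist potency from rising luciferase signal of a Gal4-LXR reporter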
T5 sequence (P55055 whole entry): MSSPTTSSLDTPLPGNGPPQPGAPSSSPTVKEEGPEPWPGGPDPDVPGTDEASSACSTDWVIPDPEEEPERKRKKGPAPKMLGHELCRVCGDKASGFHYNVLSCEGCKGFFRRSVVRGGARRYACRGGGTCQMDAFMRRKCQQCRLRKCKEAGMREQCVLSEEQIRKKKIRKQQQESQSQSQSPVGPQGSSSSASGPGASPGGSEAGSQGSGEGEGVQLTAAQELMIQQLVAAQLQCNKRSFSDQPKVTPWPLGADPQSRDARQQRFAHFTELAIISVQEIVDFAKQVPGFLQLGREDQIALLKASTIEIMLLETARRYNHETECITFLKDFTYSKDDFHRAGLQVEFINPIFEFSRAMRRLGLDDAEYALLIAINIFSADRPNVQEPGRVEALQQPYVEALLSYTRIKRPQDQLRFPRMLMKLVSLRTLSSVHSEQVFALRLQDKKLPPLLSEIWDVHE

[8] = target: T6, Trace amine-associated receptor 1 (Homo sapiens, UniProt Q96RJ0); experiment: Counterscreen for agonists of the human trace amine associated receptor 1 (hTAAR1): Fluorescence-based cell-based high throughput dose response assay to identify hTAAR1 agonist that also desensitize TAAR1 receptor response.; format: functional
T6 sequence (Q96RJ0 whole entry): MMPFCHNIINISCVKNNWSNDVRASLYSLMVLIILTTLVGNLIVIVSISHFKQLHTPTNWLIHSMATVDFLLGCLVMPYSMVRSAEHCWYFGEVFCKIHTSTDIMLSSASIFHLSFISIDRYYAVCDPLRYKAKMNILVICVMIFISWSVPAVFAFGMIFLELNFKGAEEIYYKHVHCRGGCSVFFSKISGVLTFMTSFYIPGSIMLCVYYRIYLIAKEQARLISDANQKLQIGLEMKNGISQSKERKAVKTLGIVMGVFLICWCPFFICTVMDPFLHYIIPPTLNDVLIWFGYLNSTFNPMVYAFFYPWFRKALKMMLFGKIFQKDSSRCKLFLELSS

[9] = target: T6, Trace amine-associated receptor 1; experiment: Fluorescence-based cell-based high throughput dose response assay to identify agonists of the human trace amine associated receptor 1 (TAAR1).; format: functional
cells [10] = format: functional, cell-based
cells [11] = format: functional, cell-based; remark: listed apart in the source
[12] = inhibition of ADAM10 peptide cleavage – biochemical, FRET peptide substrate, recombinant human ADAM10, selectivity assay for ADAM17 exosite inhibitor project, dose response (AID 743259);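 note: ADAM10 enzyme cleaving a FRET peptide substrate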
[13] = target: Disintegrin and metalloproteinase domain-containing protein 17 (Homo sapiens, UniProt P78536); experiment: exosite inhibitors of ADAM17, dose response, biochemical (AID 743260)
Disintegrin and metalloproteinase domain-containing protein 17, sequence (P78536 whole entry, the tested form may be a part): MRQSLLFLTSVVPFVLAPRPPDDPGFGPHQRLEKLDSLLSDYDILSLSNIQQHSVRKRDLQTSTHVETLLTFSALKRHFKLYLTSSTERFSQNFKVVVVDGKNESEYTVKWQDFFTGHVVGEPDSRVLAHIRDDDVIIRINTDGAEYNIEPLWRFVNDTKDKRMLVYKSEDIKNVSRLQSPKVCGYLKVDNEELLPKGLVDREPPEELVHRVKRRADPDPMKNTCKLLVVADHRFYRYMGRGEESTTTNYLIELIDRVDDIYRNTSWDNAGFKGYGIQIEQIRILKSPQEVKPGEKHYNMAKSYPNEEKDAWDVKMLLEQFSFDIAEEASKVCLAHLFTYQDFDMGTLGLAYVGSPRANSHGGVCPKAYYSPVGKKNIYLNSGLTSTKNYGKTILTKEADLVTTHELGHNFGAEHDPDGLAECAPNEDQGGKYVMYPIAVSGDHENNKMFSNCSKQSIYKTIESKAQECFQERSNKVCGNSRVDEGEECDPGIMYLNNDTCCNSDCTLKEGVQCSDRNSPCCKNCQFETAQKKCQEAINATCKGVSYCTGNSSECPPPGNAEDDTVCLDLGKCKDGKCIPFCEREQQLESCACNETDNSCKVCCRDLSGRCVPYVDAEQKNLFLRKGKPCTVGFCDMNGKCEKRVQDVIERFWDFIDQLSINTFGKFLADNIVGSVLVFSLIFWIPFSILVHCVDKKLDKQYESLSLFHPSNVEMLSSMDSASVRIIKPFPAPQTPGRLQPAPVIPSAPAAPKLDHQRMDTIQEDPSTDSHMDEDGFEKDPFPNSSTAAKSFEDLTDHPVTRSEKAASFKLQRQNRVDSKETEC

[14] = target: T7, Rac GTPase-activating protein 1 (Homo sapiens, UniProt Q9H0H5); experiment: blockers of MgcRacGAP-driven Rac1 GTP hydrolysis – biochemical, ADP Hunter fluorescence, primary and confirmatory, confirmation (AID 624330); format: functional
T7 sequence (Q9H0H5 whole entry): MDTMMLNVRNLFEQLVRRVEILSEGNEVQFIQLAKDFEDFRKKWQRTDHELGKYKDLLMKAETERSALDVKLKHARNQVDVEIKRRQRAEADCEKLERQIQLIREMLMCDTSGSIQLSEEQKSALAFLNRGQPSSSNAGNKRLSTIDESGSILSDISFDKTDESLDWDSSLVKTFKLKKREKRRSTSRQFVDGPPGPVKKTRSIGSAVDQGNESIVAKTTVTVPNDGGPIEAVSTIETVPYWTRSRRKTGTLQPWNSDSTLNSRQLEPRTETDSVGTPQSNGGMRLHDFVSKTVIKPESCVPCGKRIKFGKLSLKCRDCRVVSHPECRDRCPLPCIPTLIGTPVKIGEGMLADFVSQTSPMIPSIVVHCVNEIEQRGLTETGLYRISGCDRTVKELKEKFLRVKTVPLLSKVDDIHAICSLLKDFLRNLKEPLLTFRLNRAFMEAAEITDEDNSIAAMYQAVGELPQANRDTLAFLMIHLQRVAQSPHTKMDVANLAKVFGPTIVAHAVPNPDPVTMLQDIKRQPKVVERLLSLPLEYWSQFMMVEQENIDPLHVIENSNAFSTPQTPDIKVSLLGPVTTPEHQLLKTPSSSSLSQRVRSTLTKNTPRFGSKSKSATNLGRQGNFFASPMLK

[15] = target: T8, DNA repair protein RAD52 homolog (Homo sapiens, UniProt P43351); format: functional, biochemical
T8 sequence (P43351 whole entry): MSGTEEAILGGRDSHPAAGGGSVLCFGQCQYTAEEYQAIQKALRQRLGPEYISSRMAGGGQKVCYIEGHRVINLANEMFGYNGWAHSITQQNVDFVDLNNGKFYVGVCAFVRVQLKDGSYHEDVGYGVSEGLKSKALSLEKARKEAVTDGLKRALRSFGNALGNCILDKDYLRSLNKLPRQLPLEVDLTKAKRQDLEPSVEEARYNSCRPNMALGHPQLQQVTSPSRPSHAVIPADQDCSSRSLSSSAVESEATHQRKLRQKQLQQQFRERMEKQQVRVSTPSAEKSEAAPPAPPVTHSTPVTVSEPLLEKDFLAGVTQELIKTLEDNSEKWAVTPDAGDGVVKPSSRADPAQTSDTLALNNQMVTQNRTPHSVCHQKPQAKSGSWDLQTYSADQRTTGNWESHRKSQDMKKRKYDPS

P388 = experiment: cells; format: functional; settings: Mus musculus
SN12K1 = experiment: cells; format: functional; settings: Homo sapiens
Nonstructural protein 1 = Nonstructural protein 1 (Influenza A virus, UniProt Q194T2); format: functional, Influenza A virus (A/California/07/2009(H1N1))
Nonstructural protein 1, sequence (Q194T2 whole entry): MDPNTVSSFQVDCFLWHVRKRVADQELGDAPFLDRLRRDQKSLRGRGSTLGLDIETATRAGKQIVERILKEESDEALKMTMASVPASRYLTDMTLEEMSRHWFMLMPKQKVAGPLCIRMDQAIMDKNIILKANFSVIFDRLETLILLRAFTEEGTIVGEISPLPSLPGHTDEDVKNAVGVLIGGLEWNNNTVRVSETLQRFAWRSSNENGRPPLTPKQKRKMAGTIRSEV

P388/ADR = experiment: cells; format: functional; settings: Mus musculus

Cc1ccc(-n2[nH]c(C)c(/C=N/Nc3ccc([N+](=O)[O-])cc3[N+](=O)[O-])c2=O)cc1C
AC50 [1]: 14 µM (active)
IC50 [2]: 3.32 µM (active)
IC50 (Fatty acid synthase [3]): 53.5 µM (inactive)
IC50 [4]: 10.5 µM (active)
IC50 (Fatty acid synthase [5]): 32.9 µM (inactive)

O=C(/C=C/Nc1ccc(F)cc1)c1cccs1
EC50 (cells [6]): > 67.6 µM (inactive)
EC50 [7]: > 67.6 µM (inactive)

Cc1cc(N(C)C)nc(Nc2ccccc2)n1
IC50 [8]: 0.273 µM (active)
EC50 [9]: 0.128 µM (active)
EC50 (cells [10]): > 29.9 µM (inactive)
IC50 (cells [11]): > 29.9 µM (inactive)

Cn1nc(-c2ccc(C(=O)Nc3ccc(F)cc3)cc2)c2ccccc2c1=O
IC50 [2]: 10.4 µM (active)

Cc1ccc(C)c(NC(=O)c2ccc3ccccc3n2)c1
EC50 (cells [6]): > 67.5 µM (inactive)
EC50 [7]: > 67.5 µM (inactive)

CCCCC[C@@H](C)N1C[C@@H](COCc2ccccc2)Oc2cc(N3CCC[C@H]3CO)ccc2S1(=O)=O
IC50 [12]: 9.07 µM (active)
IC50 [13]: > 69.5 µM (inactive)

CCOC(=O)C(NCCc1ccccc1)(NC(=O)CC)C(F)(F)F (stereo unspecified)
IC50 [8]: 8.43 µM (active)
EC50 [9]: 1.81 µM (active)
EC50 (cells [10]): > 29.9 µM (inactive)
IC50 (cells [11]): > 29.9 µM (inactive)

CCN1CCN(c2ccc(/N=C/c3ccccc3O)cc2)CC1
IC50 [14]: 20.8 µM (active)
AC50 [15]: 2.23 µM (active)

COc1cccc(C(=O)N[C@H](C(=O)N2CCC[C@H]2C(=O)NCCc2ccccc2Cl)C2CCCCC2)c1
IC50 [8]: 6.66 µM (active)
EC50 [9]: 6.72 µM (active)
EC50 (cells [10]): > 29.9 µM (inactive)
IC50 (cells [11]): > 29.9 µM (inactive)

CCOC(=O)c1c(C)nc(-c2ccccc2)nc1N
EC50 (cells [6]): > 67.5 µM (inactive)
EC50 [7]: > 67.5 µM (inactive)

COc1ccccc1OCCn1c(SCC(=O)O)nc2ccccc21
IC50 [2]: 6.47 µM (active)

NS(=O)(=O)c1ccc(CCNC(=O)CNCCc2ccccc2)cc1
IC50 [8]: 3.56 µM (active)
EC50 [9]: 1.07 µM (active)
EC50 (cells [10]): > 29.9 µM (inactive)
IC50 (cells [11]): > 29.9 µM (inactive)

NS(=O)(=O)c1ccc(N/N=C/C=C/c2ccccc2[N+](=O)[O-])cc1
IC50 [12]: 13.7 µM (inactive)
IC50 [13]: > 69.5 µM (inactive)

COc1cc2c(ccc3c4cc(OC)c(OC)cc4c[n+](C)c23)cc1O [FAGARONINE]
IC50 [14]: 42.5 µM (active)
GI50 (P388): 0.489 µM (active)
GI50 (SN12K1): 1.95 µM (inactive)
IC50 (Nonstructural protein 1): > 100 µM (active)
GI50 (P388/ADR): 66.5 µM (inactive)
AC50 [15]: < 0.244 µM (active)
